Data taken from patent US8278306B2 (Vertex Pharmaceuticals Incorporated, priority 2006, dated 2012).

Molecular target: T1, ROCK I (AA 6-553) (Homo sapiens, UniProt Q13464)
T1 construct: ROCK I (AA 6-553)
Assay: ROCK inhibition assay, standard coupled enzyme system
Type: biochemical
Details: 45 nM ROCK I, 45 μM ATP, 200 μM peptide, 30° C.
Protocol: Reactions were carried out in a solution containing 100 mM HEPES (pH 7.5), 10 mM MgCl2, 25 mM NaCl, 2 mM DTT and 1.5% DMSO.

T1 sequence (Q13464 6-553, species assumed): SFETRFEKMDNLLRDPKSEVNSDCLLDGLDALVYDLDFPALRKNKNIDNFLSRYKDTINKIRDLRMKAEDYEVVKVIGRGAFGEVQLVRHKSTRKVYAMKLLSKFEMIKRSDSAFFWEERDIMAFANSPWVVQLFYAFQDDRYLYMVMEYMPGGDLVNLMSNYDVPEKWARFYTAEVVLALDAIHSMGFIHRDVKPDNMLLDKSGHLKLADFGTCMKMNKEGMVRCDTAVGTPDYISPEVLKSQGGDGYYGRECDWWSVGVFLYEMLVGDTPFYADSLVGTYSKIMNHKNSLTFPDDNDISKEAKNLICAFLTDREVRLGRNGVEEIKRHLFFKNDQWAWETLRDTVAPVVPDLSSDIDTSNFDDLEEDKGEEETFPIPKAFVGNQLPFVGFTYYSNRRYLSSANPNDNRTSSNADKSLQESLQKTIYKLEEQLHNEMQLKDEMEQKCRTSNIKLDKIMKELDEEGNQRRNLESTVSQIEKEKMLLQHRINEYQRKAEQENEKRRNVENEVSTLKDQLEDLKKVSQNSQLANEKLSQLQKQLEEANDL

Row | Structure (SMILES) | Ki [nM]
1 | O=C(Cc1ccc(F)cc1)Nc1nc(-c2ccnc(Cl)c2)cs1 [Compound 2] | 100 to 1000
2 | COc1cc(-c2csc(NC(=O)Cc3ccc(F)cc3)n2)ccn1 [Compound 4] | > 1000
3 | CCOc1cc(-c2csc(NC(=O)Cc3cccc(OC)c3)n2)ccn1 [Compound 5] | > 1000
4 | CCOc1cc(-c2csc(NC(=O)Cc3cc4c(cc3Cl)OCO4)n2)ccn1 [Compound 6] | > 1000
5 | CCOc1cc(-c2csc(NC(=O)Cc3ccc(F)cc3)n2)ccn1 [Compound 7] | > 1000
6 | CCOc1cc(-c2csc(NC(=O)Cc3ccccc3Cl)n2)ccn1 [Compound 8] | > 1000
7 | O=C(Cc1ccccc1Cl)Nc1nc(-c2ccnc(Cl)c2)cs1 [Compound 10] | 100 to 1000
8 | CN(C)c1cc(-c2csc(NC(=O)Cc3ccccc3Cl)n2)ccn1 [Compound 11] | > 1000
9 | CN(C)c1cc(-c2csc(NC(=O)Cc3cc4c(cc3Cl)OCO4)n2)ccn1 [Compound 12] | > 1000
10 | COc1cccc(CC(=O)Nc2nc(-c3ccnc(NCc4ccccc4)c3)cs2)c1 [Compound 14] | > 1000
11 | CCNc1cc(-c2csc(NC(=O)Cc3cccc(OC)c3)n2)ccn1 [Compound 15] | 100 to 1000
12 | Nc1cc(-c2csc(NC(=O)Cc3ccc(F)cc3F)n2)ccn1 [Compound 16] | < 100
13 | Nc1cc(-c2csc(NC(=O)Cc3cc4c(cc3Cl)OCO4)n2)ccn1 [Compound 17] | < 100
14 | CCNc1cc(-c2csc(NC(=O)Cc3ccc(F)cc3F)n2)ccn1 [Compound 21] | 100 to 1000
15 | CCNc1cc(-c2csc(NC(=O)Cc3cc4c(cc3Cl)OCO4)n2)ccn1 [Compound 22] | 100 to 1000
16 | CNc1cc(-c2csc(NC(=O)Cc3ccc(F)cc3F)n2)ccn1 [Compound 23] | 100 to 1000
17 | Nc1cc(-c2csc(NC(=O)Cc3cccc(OCCCCl)c3)n2)ccn1 [Compound 24] | 100 to 1000
18 | O=C(Cc1ccc(F)cc1F)Nc1nc(-c2ccnc(NCc3ccccc3)c2)cs1 [Compound 25] | 100 to 1000
19 | O=C(Cc1cc2c(cc1Cl)OCO2)Nc1nc(-c2ccnc(NCc3ccccc3)c2)cs1 [Compound 26] | 100 to 1000
20 | Nc1cc(-c2csc(NC(=O)Cc3ccccc3Cl)n2)ccn1 [Compound 27] | < 100
21 | CNc1cc(-c2csc(NC(=O)Cc3ccccc3Cl)n2)ccn1 [Compound 28] | 100 to 1000
22 | CCNc1cc(-c2csc(NC(=O)Cc3ccccc3Cl)n2)ccn1 [Compound 29] | 100 to 1000

Row | Structure (SMILES) | Ki [nM]
23 | Cc1cc(-c2csc(NC(=O)Cc3ccc(F)cc3F)n2)ccn1 [Compound 30] | 100 to 1000
24 | Cc1cc(-c2csc(NC(=O)Cc3cc4c(cc3Cl)OCO4)n2)ccn1 [Compound 32] | < 100
25 | Cc1cc(-c2csc(NC(=O)Cc3ccccc3Cl)n2)ccn1 [Compound 33] | 100 to 1000
26 | Nc1cc(-c2csc(NC(=O)Cc3cccc(O)c3)n2)ccn1 [Compound 34] | < 100
27 | Nc1cc(-c2csc(NC(=O)Cc3ccccc3F)n2)ccn1 [Compound 35] | < 100
28 | Cc1cc(-c2csc(NC(=O)Cc3ccccc3)n2)ccn1 [Compound 36] | 100 to 1000
29 | Cc1cc(-c2csc(NC(=O)Cc3cccc(O)c3)n2)ccn1 [Compound 37] | < 100
30 | Cc1cc(-c2csc(NC(=O)Cc3ccccc3F)n2)ccn1 [Compound 38] | 100 to 1000
31 | Cc1cc(-c2csc(NC(=O)Cc3cccc(OCCCN4CCN(C)CC4)c3)n2)ccn1 [Compound 39] | 100 to 1000
32 | Cc1cc(-c2csc(NC(=O)Cc3ccc(F)cc3)n2)ccn1 [Compound 40] | 100 to 1000
33 | Nc1cc(-c2csc(NC(=O)Cc3ccccc3)n2)ccn1 [Compound 41] | < 100
34 | Nc1cc(-c2csc(NC(=O)Cc3ccc(F)cc3)n2)ccn1 [Compound 42] | 100 to 1000
35 | CS(=O)(=O)Nc1ccc(CC(=O)Nc2nc(-c3ccnc(N)c3)cs2)cc1 [Compound 43] | 100 to 1000
36 | Cc1cc(-c2csc(NC(=O)Cc3ccc(NS(C)(=O)=O)cc3)n2)ccn1 [Compound 44] | 100 to 1000
37 | CN1CCN(CCCOc2cccc(CC(=O)Nc3nc(-c4ccnc(N)c4)cs3)c2)CC1 [Compound 45] | < 100
38 | O=C(Cc1ccccc1F)Nc1nc(-c2ccnc(Cl)c2)cs1 [Compound 46] | 100 to 1000
39 | O=C(Cc1ccc(F)cc1F)Nc1nc(-c2ccnc(Cl)c2)cs1 [Compound 47] | 100 to 1000
40 | O=C(Cc1cccc(O)c1)Nc1nc(-c2ccnc(Cl)c2)cs1 [Compound 48] | < 100
41 | O=C(Cc1cc2c(cc1Cl)OCO2)Nc1nc(-c2ccnc(Cl)c2)cs1 [Compound 49] | < 100
42 | O=C(Cc1ccccc1)Nc1nc(-c2ccnc(Cl)c2)cs1 [Compound 50] | 100 to 1000
43 | CS(=O)(=O)Nc1cccc(CC(=O)Nc2nc(-c3ccnc(Cl)c3)cs2)c1 [Compound 51] | 100 to 1000
44 | Nc1cc(-c2csc(NC(=O)Cc3cccc(OCCCN4CCNCC4)c3)n2)ccn1 [Compound 52] | < 100

Row | Structure (SMILES) | Ki [nM]
45 | CN1CCN(CCCOc2cccc(CC(=O)Nc3nc(-c4ccnc(Cl)c4)cs3)c2)CC1 [Compound 53] | < 100
46 | CCN1CCN(CCCOc2cccc(CC(=O)Nc3nc(-c4ccnc(Cl)c4)cs3)c2)CC1 [Compound 54] | < 100
47 | O=C(Cc1cccc(OCCCN2CCNCC2)c1)Nc1nc(-c2ccnc(Cl)c2)cs1 [Compound 55] | < 100
48 | O=C(Cc1ccccc1F)Nc1nc(-c2ccnc(F)c2)cs1 [Compound 56] | < 100
49 | O=C(Cc1ccc(F)cc1)Nc1nc(-c2ccnc(F)c2)cs1 [Compound 57] | 100 to 1000
50 | O=C(Cc1ccc(F)cc1F)Nc1nc(-c2ccnc(F)c2)cs1 [Compound 58] | < 100
51 | CS(=O)(=O)Nc1cccc(CC(=O)Nc2nc(-c3ccnc(F)c3)cs2)c1 [Compound 59] | < 100
52 | CN1CCN(CCCOc2cccc(CC(=O)Nc3nc(-c4ccnc(F)c4)cs3)c2)CC1 [Compound 60] | < 100
53 | O=C(Cc1ccccc1)Nc1cc(-c2ccnc(F)c2)cs1 [Compound 66] | < 100
54 | O=C(Cc1ccc(F)cc1)Nc1cc(-c2ccnc(F)c2)cs1 [Compound 67] | < 100
55 | CS(=O)(=O)Nc1ccc(F)c(CC(=O)Nc2cc(-c3ccnc(F)c3)cs2)c1 [Compound 68] | < 100
56 | O=C(Cc1ccc(F)cc1F)Nc1cc(-c2ccnc(F)c2)cs1 [Compound 69] | < 100
57 | CCN(CC)S(=O)(=O)c1cccc(CC(=O)Nc2cc(-c3ccnc(F)c3)cs2)c1 [Compound 70] | < 100
58 | O=C(Cc1cccc(S(=O)(=O)N2CCOCC2)c1)Nc1cc(-c2ccnc(F)c2)cs1 [Compound 71] | 100 to 1000
59 | CS(=O)(=O)Nc1ccc(F)c(CC(=O)Nc2cc(-c3ccnc(N)c3)cs2)c1 [Compound 76] | < 100
60 | CN(C)S(=O)(=O)c1cccc(CC(=O)Nc2cc(-c3ccnc(F)c3)cs2)c1 [Compound 78] | 100 to 1000
61 | CN(C)S(=O)(=O)c1cccc(CC(=O)Nc2cc(-c3ccnc(N)c3)cs2)c1 [Compound 79] | 100 to 1000
62 | Cc1cc(-c2csc(NC(=O)Cc3ccccc3F)c2)ccn1 [Compound 81] | 100 to 1000
63 | Cc1cc(-c2csc(NC(=O)Cc3cccc(NS(C)(=O)=O)c3)c2)ccn1 [Compound 82] | 100 to 1000
64 | Cc1cc(-c2csc(NC(=O)Cc3cccc(S(=O)(=O)N(C)C)c3)c2)ccn1 [Compound 83] | > 1000
65 | Cc1cc(-c2csc(NC(=O)Cc3cccc(NS(=O)(=O)N(C)C)c3)c2)ccn1 [Compound 84] | 100 to 1000
66 | Cc1cc(-c2csc(NC(=O)Cc3cc(NS(C)(=O)=O)ccc3F)c2)ccn1 [Compound 86] | < 100
